Key:
IL-13 mRNA = IL-13 mRNA level in skin lesion (RT-PCR); assay type: in vivo, NC/Nga mice
Experimental: (§1) In order to induce atopic dermatitis, 100 mg of mite antigen cream was applied on the ear, occipital region and back of NC/Nga mouse (9 to 11 weeks old), except for the negative control group, 3 times a week, 2 hours after the application of 4% SDS solution. Three weeks later, it was observed whether atopic dermatitis was induced by checking skin rash, erythema, cornification, or the like. Atopic dermatitis was induced in all groups except for the negative control group. […] Transepidermal water loss (TEWL), skin hydration and erythema index were measured one day before the end of the test. […]
(§2) After the end of the experiment, skin tissue was isolated from the occipital region to the back of the mouse, immersed in liquid nitrogen, pulverized using a mortar, dissolved in 500 μL of TRIzol® (InvitrogenLife Technologies, USA), and then homogenized using a homogenizer in order to measure mRNA level of cytokines in skin lesion. […] After the centrifuge, the supernatant was discarded and the remaining pellets were washed 2 times with 100% ethanol, dried, and then subjected to RNA quantification by spectrophotometry. […]

TNF-α mRNA = TNF-α mRNA level in skin lesion (RT-PCR); assay type: in vivo, NC/Nga mice
Experimental: as §1, §2

[1] = Skin barrier recovery test (TEWL, skin hydration, erythema index), atopic dermatitis model; assay type: in vivo, NC/Nga mice
Experimental: 8-week-old NC/Nga mice (20-25 g) were purchased from Chungang Lab. Animal. After adapting for 1 week, the NC/Nga mouse was anesthetized with 90% ethyl ether (Ducsan, Korea) and hair was removed from the occipital region and the back of the mouse using depilatory cream (Reckitt Benckiser, France). After allowing micro wound healing for a day, 100 mg of mite antigen cream (Biostir, Inc. Japan) comprising Dermatophagoides farina, which causes atopic dermatitis, as a main ingredient was evenly applied on the ear, occipital region and back, 3 times a week (for 5 weeks, from week 9 to week 13). 2 hours before application of the mite antigen cream, 4% SDS solution was applied at the same area to increase transdermal absorption of the mite antigen cream by inducing the breakdown of skin fats and cuticle layer. From week 3 following the application, IgE value was measured to quantitate the degree of atopic dermatitis. Also during the drug treatment period (week 12 to week 13), 100 mg of the mite antigen cream was applied 3 times a week to prevent spontaneous healing of the atopic dermatitis.
In order to induce atopic dermatitis, 100 mg of mite antigen cream was applied on the ear, occipital region and back of NC/Nga mouse (9 to 11 weeks old), except for the negative control group, 3 times a week, 2 hours after the application of 4% SDS solution. Three weeks later, it was observed whether atopic dermatitis was induced by checking skin rash, erythema, cornification, or the like. Atopic dermatitis was induced in all groups except for the negative control group. For drug treatment and evaluation of therapeutic effect, mice were grouped into 12 groups, 6 oral administration groups and 6 topical application groups (each consisting of negative control group, positive control group, macelignan low conc. group, macelignan high conc. group, nutmeg extract low conc. group, and nutmeg extract high conc. group), with n=5 per cage. During the following drug treatment and evaluation period of 2 weeks (12 to 13 weeks old), the negative control groups, which had not been treated with 4% SDS solution and mite antigen cream, were treated with physiological saline (oral administration group) or base cream (topical application group) every day, and the positive control groups, which had been treated with 100 mg of mite antigen cream 2 hours after application of 4% SDS solution, 3 times every week, were treated with physiological saline (oral administration group) or base cream (topical application group). The oral administration groups were treated with 100 mg of mite antigen cream 2 hours after application of 4% SDS solution, 3 times every week, and were treated with macelignan or nutmeg extract at low concentration (50 mg/kg/day) or high concentration (150 mg/kg/day) every day. The topical application groups were treated with 100 mg of mite antigen cream 2 hours after application of 4% SDS solution, 3 times every week, and were treated with macelignan cream or nutmeg extract cream at low concentration (20 mg/kg/day) or high concentration (60 mg/kg/day) every day. Transepidermal water loss (TEWL), skin hydration and erythema index were measured one day before the end of the test. Serum was obtained by retro-orbital blood sampling. After the end of the test (14 weeks old) spleen and skin tissues from occipital region and back were sampled and stored at −70° C. ALN (axillary lymph node) was stored in DMEM containing 2% FBS (fetal bovine serum). The skin tissues were stored in 10% formalin solution.
One day before the end of the experiment, TEWL, skin hydration and erythema index were measured to quantitatively compare recovery of skin barrier. TEWL was measured with a tewameter (TM300), skin hydration with a corneometer (CM825), and erythema index with a mexameter (MX18).

RAW264.7 cells = experiment: MTT cytotoxicity assay on RAW264.7 cells; assay type: cell-based; conditions: macelignan 1-20 μM, 24 hours
Experimental: In order to examine the effect of macelignan obtained in <Example 1> on the production of inflammatory response mediators, the macrophage RAW264.7 cell line was used. The macrophage RAW264.7 cell line (ATCC TIB-71) was purchased from American Tissue Culture Collection (Rockville, Md., USA). The cell line was cultured in DMEM (Dulbecco's Modified Eagle's Medium, Gibco, USA) supplemented with 10% heat inactivated FBS (fetal bovine serum, Gibco, USA), 100 U/ml penicillin G and 100 μg/ml streptomycin, in a 5% CO2 incubator at 37° C. In order to examine the effect of the inventive macelignan on the viability of RAW 264.7 cells, analysis was performed based on the reduction of MTT changed into a purple formazan product by mitochondrial dehydrogenase (Hayon T. et al., Leuk. Lymphoma. 44(11): 1957-1962, 2003). 1×10^6 cells/ml of RAW264.7 cells were inoculated into RPMI 1640 medium, and after 6 hours, were treated with the inventive macelignan at concentrations up to 1-80 μM/ml. After 24 hours, the viability of the cells was measured by the MTT assay.

[2] = oral administration 50 and 150 mg/kg
[3] = topical application 20 and 60 mg/kg
[4] = oral administration 50 mg/kg/day
[5] = oral administration 150 mg/kg/day
[6] = oral administration 50 and 150 mg/kg, p<0.01
[7] = topical application 20 mg/kg/day
[8] = topical application 60 mg/kg/day
[9] = topical application 20 and 60 mg/kg, p<0.01

COc1cc(C[C@H](C)[C@H](C)Cc2ccc3c(c2)OCO3)ccc1O (single isomer, unassigned) [macelignan]
IL-13 mRNA level in skin lesion (IL-13 mRNA; [2]): statistically significant effect of decreasing IL-13 mRNA level | IL-13 mRNA level in skin lesion (IL-13 mRNA; [3]): effect of decreasing IL-13 mRNA level | TNF-α mRNA level in skin lesion (TNF-α mRNA; [2]): statistically significant effect of decreasing TNF-α mRNA level | TNF-α mRNA level in skin lesion (TNF-α mRNA; [3]): effect of decreasing TNF-α mRNA level | Erythema Index [1, 4]: 198.5 ± 46.8 | Skin Hydration [1, 4]: 5.0 ± 0.8 AU | TEWL [1, 4]: 17.6 ± 8.1 g/hr · m^2 | Erythema Index [1, 5]: 190 ± 24.4 | Skin Hydration [1, 5]: 6.4 ± 2.8 AU | TEWL [1, 5]: 21.5 ± 9.2 g/hr · m^2 | skin hydration compared to the positive control group [1, 2]: effect of increasing skin hydration | TEWL compared to the positive control group [1, 6]: statistically significant effect of suppressing TEWL | erythema index compared to the positive control group [1, 6]: statistically significant effect of decreasing erythema index | Erythema Index [1, 7]: 163.3 ± 4.0 | Skin Hydration [1, 7]: 12.4 ± 3.9 AU | TEWL [1, 7]: 25.8 ± 3.1 g/hr · m^2 | Erythema Index [1, 8]: 190 ± 24 | Skin Hydration [1, 8]: 13.4 ± 4.7 AU | TEWL [1, 8]: 26.2 ± 4.9 g/hr · m^2 | TEWL compared to the positive control group [1, 9]: statistically significant effect of suppressing TEWL | erythema index compared to the positive control group [1, 9]: statistically significant effect of decreasing erythema index | skin hydration compared to the positive control group [1, 9]: statistically significant effect of increasing skin hydration | viability of the RAW264.7 cells (RAW264.7 cells): no significant effect

From US8853264B2, “Use of lignan compounds for treating or preventing inflammatory disease” (Newtree Industry Co., Ltd., priority 2005, dated 2014)
